# Reference: patent US20230085307A1, “PYRIDAZINONE COMPOUND AND HERBICIDE” (NISSAN CHEMICAL CORPORATION, priority 2019, published 2023)
# Legend:
# late watergrass = assay: Test Example 1: herbicidal activity, application before weed generation under submerged conditions (Table 16, symbol A); assay type: in vivo, late watergrass (Echinochloa oryzicola); details: amount of applied herbicide 320 g/ha
# Method in brief: (§1)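 Submerged Wagner pots (alluvial soil, 4 cm water) sown with weed seeds and planted with 2.5-leaf rice seedlings; emulsifiable concentrate diluted in water applied to water surface on sowing day. Held in greenhouse at 25-30 °C; injury scored 0-5 by herbicidal rate after three weeks.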
# Japanese bulrush = assay: Test Example 1: herbicidal activity, application before weed generation under submerged conditions (Table 16, symbol B); assay type: in vivo, Japanese bulrush (Schoenoplectus juncoides); details: amount of applied herbicide 320 g/ha
# Method in brief: as §1
# oval-leafed pondweed = assay: Test Example 1: herbicidal activity, application before weed generation under submerged conditions (Table 16, symbol C); assay type: in vivo, oval-leafed pondweed (Monochoria vaginalis); details: amount of applied herbicide 320 g/ha
# Method in brief: as §1
# barnyard grass [1] = assay: Test Example 3: herbicidal effect by foliage application, Wagner pot (Table 18, symbol H); assay type: in vivo, barnyard grass (Echinochloa crus-galli); details: 320 g/ha
# Method in brief: (§2)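 Plants were sown in alluvial soil held under 0.1–0.5 cm standing water and grown 14 days in a greenhouse at 25–30 °C. An emulsifiable formulation, water-diluted to the set dose, was then sprayed onto the foliage, and effects were scored three weeks later using previously defined criteria.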
# Chinese sprangletop = assay: Test Example 3: herbicidal effect by foliage application, Wagner pot (Table 18, symbol D); assay type: in vivo, chinese sprangletop (Leptochloa chinensis); details: 320 g/ha
# Method in brief: as §2
# rice flat sedge = assay: Test Example 3: herbicidal effect by foliage application, Wagner pot (Table 18, symbol E); assay type: in vivo, rice flat sedge (Cyperus iria); details: 320 g/ha
# Method in brief: as §2
# southern crabgrass = assay: Test Example 5: herbicidal effect by foliage application, plastic box (Table 20, symbol F); assay type: in vivo, southern crabgrass (Digitaria ciliaris); details: foliage application after 14-day growth, evaluated three weeks after application; for herbicidal effect on F: southern crabgrass (evaluation grade 0-5): 320 g/ha; for Herbicidal effect by foliage application, F: southern crabgrass: amount of applied herbicide 320 g/ha
# Method in brief: (§3)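 Plants were sown into sterilized diluvial soil under about 1.5 cm cover and kept in a greenhouse at 25° C. to 30° C. Fourteen days on, foliage received an even spray of the diluted emulsion. Herbicidal or crop effect was judged three weeks afterwards.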
# green foxtail = assay: Test Example 5: herbicidal effect by foliage application, plastic box (Table 20, symbol G); assay type: in vivo, green foxtail (Setaria viridis); details: foliage application after 14-day growth, evaluated three weeks after application; for herbicidal effect on G: green foxtail (evaluation grade 0-5): 320 g/ha; for Herbicidal effect by foliage application, G: green foxtail: amount of applied herbicide 320 g/ha
# Method in brief: as §3
# barnyard grass [2] = assay: Test Example 5: herbicidal effect by foliage application, plastic box (Table 20, symbol H); assay type: in vivo, barnyard grass (Echinochloa crus-galli); details: foliage application after 14-day growth, evaluated three weeks after application; for herbicidal effect on H: barnyard grass (evaluation grade 0-5): 320 g/ha; for Herbicidal effect by foliage application, H: barnyard grass: amount of applied herbicide 320 g/ha
# Method in brief: as §3
# wild oat = assay: Test Example 5: herbicidal effect by foliage application, plastic box (Table 20, symbol I); assay type: in vivo, wild oat (Avena fatua); details: foliage application after 14-day growth, evaluated three weeks after application; for herbicidal effect on I: wild oat (evaluation grade 0-5): 320 g/ha; for Herbicidal effect by foliage application, I: wild oat: amount of applied herbicide 320 g/ha
# Method in brief: as §3
# blackgrass = assay: Test Example 5: herbicidal effect by foliage application, plastic box (Table 20, symbol J); assay type: in vivo, blackgrass (Alopecurus myosuroides); details: foliage application after 14-day growth, evaluated three weeks after application; for herbicidal effect on J: blackgrass (evaluation grade 0-5): 320 g/ha; for Herbicidal effect by foliage application, J: blackgrass: amount of applied herbicide 320 g/ha
# Method in brief: as §3
# Italian ryegrass = assay: Test Example 5: herbicidal effect by foliage application, plastic box (Table 20, symbol K); assay type: in vivo, Italian ryegrass (Lolium multiflorum); details: foliage application after 14-day growth, evaluated three weeks after application; for herbicidal effect on K: Italian ryegrass (evaluation grade 0-5): 320 g/ha; for Herbicidal effect by foliage application, K: Italian ryegrass: amount of applied herbicide 320 g/ha
# Method in brief: as §3
# windgrass = assay: Test Example 5: herbicidal effect by foliage application, plastic box (Table 20, symbol L); assay type: in vivo, windgrass (Apera spica-venti); details: foliage application after 14-day growth, evaluated three weeks after application; for herbicidal effect on L: windgrass (evaluation grade 0-5): 320 g/ha; for Herbicidal effect by foliage application, L: windgrass: amount of applied herbicide 320 g/ha
# Method in brief: as §3
# velvetleaf = assay: Test Example 5: herbicidal effect by foliage application, plastic box (Table 20, symbol M); assay type: in vivo, velvetleaf (Abutilon theophrasti); details: foliage application after 14-day growth, evaluated three weeks after application; for herbicidal effect on M: velvetleaf (evaluation grade 0-5): 320 g/ha; for Herbicidal effect by foliage application, M: velvetleaf: amount of applied herbicide 320 g/ha
# Method in brief: as §3
# redroot pigweed = assay: Test Example 5: herbicidal effect by foliage application, plastic box (Table 20, symbol N); assay type: in vivo, redroot pigweed (Amaranthus retroflexus); details: foliage application after 14-day growth, evaluated three weeks after application; for herbicidal effect on N: redroot pigweed (evaluation grade 0-5): 320 g/ha; for Herbicidal effect by foliage application, N: redroot pigweed: amount of applied herbicide 320 g/ha
# Method in brief: as §3
# lambsquarters = assay: Test Example 5: herbicidal effect by foliage application, plastic box (Table 20, symbol O); assay type: in vivo, lambsquarters (Chenopodium album); details: foliage application after 14-day growth, evaluated three weeks after application; for herbicidal effect on O: lambsquarters (evaluation grade 0-5): 320 g/ha; for Herbicidal effect by foliage application, O: lambsquarters: amount of applied herbicide 320 g/ha
# Method in brief: as §3
# chickweed = assay: Test Example 5: herbicidal effect by foliage application, plastic box (Table 20, symbol P); assay type: in vivo, common chickweed (Stellaria media); details: foliage application after 14-day growth, evaluated three weeks after application; for herbicidal effect on P: chickweed (evaluation grade 0-5): 320 g/ha; for Herbicidal effect by foliage application, P: chickweed: amount of applied herbicide 320 g/ha
# Method in brief: as §3
# persian speedwell = assay: Test Example 5: herbicidal effect by foliage application, plastic box (Table 20, symbol R); assay type: in vivo, Persian speedwell (Veronica persica); details: foliage application after 14-day growth, evaluated three weeks after application; for herbicidal effect on R: persian speedwell (evaluation grade 0-5): 320 g/ha; for Herbicidal effect by foliage application, R: persian speedwell: amount of applied herbicide 320 g/ha
# Method in brief: as §3
SMILES,"Herbicidal effect, A: late watergrass (late watergrass)","Herbicidal effect, B: Japanese bulrush (Japanese bulrush)","Herbicidal effect, C: oval-leafed pondweed (oval-leafed pondweed)",herbicidal effect on barnyard grass (H) (barnyard grass [1]),herbicidal effect on Chinese sprangletop (D) (Chinese sprangletop),herbicidal effect on rice flat sedge (E) (rice flat sedge),herbicidal effect on F: southern crabgrass (evaluation grade 0-5) (southern crabgrass),herbicidal effect on G: green foxtail (evaluation grade 0-5) (green foxtail),herbicidal effect on H: barnyard grass (evaluation grade 0-5) (barnyard grass [2]),herbicidal effect on I: wild oat (evaluation grade 0-5) (wild oat),herbicidal effect on J: blackgrass (evaluation grade 0-5) (blackgrass),herbicidal effect on K: Italian ryegrass (evaluation grade 0-5) (Italian ryegrass),herbicidal effect on L: windgrass (evaluation grade 0-5) (windgrass),herbicidal effect on M: velvetleaf (evaluation grade 0-5) (velvetleaf),herbicidal effect on N: redroot pigweed (evaluation grade 0-5) (redroot pigweed),herbicidal effect on O: lambsquarters (evaluation grade 0-5) (lambsquarters),herbicidal effect on P: chickweed (evaluation grade 0-5) (chickweed),herbicidal effect on R: persian speedwell (evaluation grade 0-5) (persian speedwell),"Herbicidal effect by foliage application, F: southern crabgrass (southern crabgrass)","Herbicidal effect by foliage application, G: green foxtail (green foxtail)",other results
CCc1ccccc1-c1sc2c(Cl)cccc2c1-c1c(O)c(C)nn(C)c1=O [4-062],0 (Herbicidal rate of 5% or less (almost no effect)),2 (Herbicidal rate of 20% or more and less than 40%),0 (Herbicidal rate of 5% or less (almost no effect)),4 (Herbicidal rate of 70% or more and less than 90%),4 (Herbicidal rate of 70% or more and less than 90%),3 (Herbicidal rate of 40% or more and less than 70%),1 (Herbicidal rate of 5% or more and less than 20%),3 (Herbicidal rate of 40% or more and less than 70%),1 (Herbicidal rate of 5% or more and less than 20%),0 (Herbicidal rate of 5% or less (almost no effect)),0 (Herbicidal rate of 5% or less (almost no effect)),0 (Herbicidal rate of 5% or less (almost no effect)),0 (Herbicidal rate of 5% or less (almost no effect)),2 (Herbicidal rate of 20% or more and less than 40%),3 (Herbicidal rate of 40% or more and less than 70%),0 (Herbicidal rate of 5% or less (almost no effect)),3 (Herbicidal rate of 40% or more and less than 70%),3 (Herbicidal rate of 40% or more and less than 70%),,,
CCCC(=O)Oc1c(C)nn(C)c(=O)c1-c1c(-c2cccc(OC)c2)sc2c(Cl)cccc12 [4-065],4 (Herbicidal rate of 70% or more and less than 90%),0 (Herbicidal rate of 5% or less (almost no effect)),1 (Herbicidal rate of 5% or more and less than 20%),4 (Herbicidal rate of 70% or more and less than 90%),3 (Herbicidal rate of 40% or more and less than 70%),3 (Herbicidal rate of 40% or more and less than 70%),0 (Herbicidal rate of 5% or less (almost no effect)),0 (Herbicidal rate of 5% or less (almost no effect)),0 (Herbicidal rate of 5% or less (almost no effect)),0 (Herbicidal rate of 5% or less (almost no effect)),0 (Herbicidal rate of 5% or less (almost no effect)),0 (Herbicidal rate of 5% or less (almost no effect)),0 (Herbicidal rate of 5% or less (almost no effect)),1 (Herbicidal rate of 5% or more and less than 20%),5 (Herbicidal rate of 90% or more (almost completely withered)),2 (Herbicidal rate of 20% or more and less than 40%),3 (Herbicidal rate of 40% or more and less than 70%),3 (Herbicidal rate of 40% or more and less than 70%),,,
Cc1nn(C)c(=O)c(-c2c(-c3ccccc3C(F)(F)F)sc3c(Cl)cccc23)c1O [4-070],3 (Herbicidal rate of 40% or more and less than 70%),2 (Herbicidal rate of 20% or more and less than 40%),1 (Herbicidal rate of 5% or more and less than 20%),5 (Herbicidal rate of 90% or more (almost completely withered)),4 (Herbicidal rate of 70% or more and less than 90%),4 (Herbicidal rate of 70% or more and less than 90%),,,,,,,,,,,,,0 (Herbicidal rate of 5% or less (almost no effect)),0 (Herbicidal rate of 5% or less (almost no effect)),"Herbicidal effect by foliage application, H: barnyard grass (barnyard grass [2]): 0 (Herbicidal rate of 5% or less (almost no effect)); Herbicidal effect by foliage application, I: wild oat (wild oat): 0 (Herbicidal rate of 5% or less (almost no effect)); Herbicidal effect by foliage application, J: blackgrass (blackgrass): 0 (Herbicidal rate of 5% or less (almost no effect)); Herbicidal effect by foliage application, K: Italian ryegrass (Italian ryegrass): 3 (Herbicidal rate of 40% or more and less than 70%); Herbicidal effect by foliage application, L: windgrass (windgrass): 0 (Herbicidal rate of 5% or less (almost no effect)); Herbicidal effect by foliage application, M: velvetleaf (velvetleaf): 0 (Herbicidal rate of 5% or less (almost no effect)); Herbicidal effect by foliage application, N: redroot pigweed (redroot pigweed): 3 (Herbicidal rate of 40% or more and less than 70%); Herbicidal effect by foliage application, O: lambsquarters (lambsquarters): 3 (Herbicidal rate of 40% or more and less than 70%); Herbicidal effect by foliage application, P: chickweed (chickweed): 5 (Herbicidal rate of 90% or more (almost completely withered)); Herbicidal effect by foliage application, R: persian speedwell (persian speedwell): 5 (Herbicidal rate of 90% or more (almost completely withered))"
COc1ccccc1-c1sc2cc(Cl)c(Cl)cc2c1-c1c(O)c(C)nn(C)c1=O [5-041],0 (Herbicidal rate of 5% or less (almost no effect)),5 (Herbicidal rate of 90% or more (almost completely withered)),5 (Herbicidal rate of 90% or more (almost completely withered)),4 (Herbicidal rate of 70% or more and less than 90%),3 (Herbicidal rate of 40% or more and less than 70%),3 (Herbicidal rate of 40% or more and less than 70%),,,,,,,,,,,,,3 (Herbicidal rate of 40% or more and less than 70%),4 (Herbicidal rate of 70% or more and less than 90%),"Herbicidal effect by foliage application, H: barnyard grass (barnyard grass [2]): 3 (Herbicidal rate of 40% or more and less than 70%); Herbicidal effect by foliage application, I: wild oat (wild oat): 0 (Herbicidal rate of 5% or less (almost no effect)); Herbicidal effect by foliage application, J: blackgrass (blackgrass): 0 (Herbicidal rate of 5% or less (almost no effect)); Herbicidal effect by foliage application, K: Italian ryegrass (Italian ryegrass): 0 (Herbicidal rate of 5% or less (almost no effect)); Herbicidal effect by foliage application, L: windgrass (windgrass): 0 (Herbicidal rate of 5% or less (almost no effect)); Herbicidal effect by foliage application, M: velvetleaf (velvetleaf): 4 (Herbicidal rate of 70% or more and less than 90%); Herbicidal effect by foliage application, N: redroot pigweed (redroot pigweed): 5 (Herbicidal rate of 90% or more (almost completely withered)); Herbicidal effect by foliage application, O: lambsquarters (lambsquarters): 3 (Herbicidal rate of 40% or more and less than 70%); Herbicidal effect by foliage application, P: chickweed (chickweed): 5 (Herbicidal rate of 90% or more (almost completely withered)); Herbicidal effect by foliage application, R: persian speedwell (persian speedwell): 3 (Herbicidal rate of 40% or more and less than 70%)"
